Results from patent publication US20060275854A1, “Method for monitoring reactions in real time” (priority 2003, published 2006).
“Also recorded” adds a separate entry of the source. Values belong to the molecule of their own block, whether it stands above or below them.

Key:
porcine ALP [1] = conditions: 0.1 mM compound, 0.75 mM AMP, FIG. 5A
Protocol: The resulting mixture was incubated for another 10 min, followed by the addition of 5 units of porcine ALP (resulting in a concentration of 0.01 units/μL) and further incubation for 75 more minutes. The fluorescence intensity (FALP) was monitored continuously. For the same compound, the fluorescence intensity (FNoALP) of a control reaction with the addition of porcine ALP was also recorded in the same way.

porcine ALP [2] = conditions: known inhibitors; cited from earlier work
calf intestine ALP = conditions: known; cited from earlier work
[3] = test system: anti-ATP signaling aptamer; experiment: Fluorescence signaling of the structure-switching ATP aptamer reporter on target addition; type: binding; conditions: for fluorescence intensity increase over the background reading: 750 μM target, FIG. 1B
[4] = test system: Adenosine Deaminase (ADA); experiment: Adenosine deaminase activity and inhibition monitored by signaling aptamer; type: biochemical
Protocol: Adenosine deaminase transforms adenosine into inosine. […] Thus conversion from adenosine to inosine results in a decrease in fluorescent signal. […] EHNA is a known inhibitor of adenosine deaminase.
After 3 minutes, different concentrations of EHNA.HC1, an adenosine deaminase inhibitor, in DMSO were introduced: no inhibitor (blue line), 100 nM inhibitor (green line) and 10 μM inhibitor (red line). The solutions were further incubated for 5 more minutes. […] Finally, the solutions were exposed to an enzyme, called Adenosine Deaminase (ADA), which transforms adenosine into inosine. The aptamer has no affinity for the inosine, so the transformation should induce the disruption of the aptamer—adenosine complex state and the formation of a duplex state with the QDNA.

SMILES: Cl.c1ccc(C2CN3CCSC3=N2)cc1 (racemic) [Tetramisole, (±) 2,3,5,6-Tetrahydro-6-phenylimidazo[2,1-b]thiazole hydrochloride]
rate of transformation of AMP to adenosine relative to the uninhibited reaction (porcine ALP [1]): considerably reduced
Ki (porcine ALP [2]): low mM range
inhibition of calf intestine ALP (in words) (calf intestine ALP): not calf intestine ALP

SMILES: Cl.c1ccc(C2CN3CCSC3=N2)cc1 (single isomer, unassigned; (-)) [Levamisole, (−) 2,3,5,6-Tetrahydro-6-phenylimidazo[2,1-b]thiazole hydrochloride]
rate of transformation of AMP to adenosine relative to the uninhibited reaction (porcine ALP [1]): considerably reduced
Ki (porcine ALP [2]): low mM range
inhibition of calf intestine ALP (in words) (calf intestine ALP): not calf intestine ALP

SMILES: Nc1ncnc2c1ncn2[C@@H]1O[C@H](COP(=O)(O)OP(=O)(O)O)[C@@H](O)[C@H]1O [ADP, adenosine 5′-diphosphate]
fluorescence intensity increase over the background reading [3]: 8.3 fold

SMILES: Nc1ncnc2c1ncn2[C@@H]1O[C@H](COP(=O)(O)O)[C@@H](O)[C@H]1O [AMP, adenosine 5′-monophosphate]
affinity of the signaling aptamer for the substance (in words) [3]: moderate affinity
fluorescence intensity increase over the background reading [3]: 5.3 fold

SMILES: Nc1ncnc2c1ncn2[C@@H]1O[C@H](COP(=O)(O)OP(=O)(O)OP(=O)(O)O)[C@@H](O)[C@H]1O [ATP, adenosine 5′-triphosphate]
fluorescence intensity increase over the background reading [3]: 6.9 fold

rate of deamination ([4]; 100 nM inhibitor, 1 mM adenosine): slower
rate of deamination ([4]; 10 μM inhibitor, 1 mM adenosine): virtually stopped
rate of deamination ([4]; 10 μM inhibitor, 1 mM adenosine, listed as EHNA.HC1): almost no deamination
rate of deamination ([4]; 100 mM EHNA, FIG. 6): reduced
SMILES: CCCCCC[C@@H]([C@@H](C)O)n1cnc2c(N)ncnc21.Cl [EHNA]

SMILES: Nc1ncnc2c1ncn2[C@@H]1O[C@H](CO)[C@@H](O)[C@H]1O [adenosine]
affinity of the signaling aptamer for the substance (in words) [3]: higher affinity
fluorescence intensity increase over the background reading [3]: 8.1 fold

SMILES: OC[C@H]1O[C@@H](n2cnc3c(O)ncnc32)[C@H](O)[C@@H]1O [inosine]
affinity of the signaling aptamer for the substance (in words) [3]: virtually no affinity; also recorded: no affinity at all
